Broadly, the IC50 is the midpoint of a concentration-inhibition curve.

Molecules are shown by their SMILES. Like-named read-outs stand apart in the source and are kept apart here.

For data set [1] the following is noted: cited from earlier work; for N–H BDE: in water ref 48.
A short description of data set [2]: Ferric reducing/antioxidant power (FRAP assay). Format: biochemical. More on the design: key to FRAP: –: Very low activity. The settings on record: means ± standard deviation; absorbance at 593 nm. The protocol:
The FRAP method was carried out according to previously described procedures with some modifications to be compatible with an assay on a 96-well microplate. All tests were done in triplicate, while the obtained results were averaged and reported as Fe^2+ equivalents (Fe^2+ µmol).
By using the FRAP assay, we investigated the reducing power of investigated systems, which was monitored by the corresponding changes in the absorbance at 593 nm. This method is based on the ability of systems to reduce the ferric tripyridyl triazine complex (TPTZ) to the ferrous state (Fe^2+), which can be seen by an intense blue color. […] Good reducing ability was shown by the trimethoxy substituted benzimidazole-2-carboxamide 14 bearing the amino group (1102.5 ± 14.1 mmolFe^2+/mmolC).

The nature of data set [3]: DPPH free radical scavenging. Type of data set: biochemical. Also noted: key to DPPH IC50: –: Very low activity. The note with it: after 30 min of incubation with 100 μM DPPH. The protocol:
The reducing activity of investigated systems was achieved by the DPPH method according to previously described procedures with modifications to assure the use in a 96-well microplate. Briefly, equal volumes of various concentrations of tested molecules (dissolved in DMSO) were added to the solution of DPPH (final concentration 50 µM in absolute ethanol). Ethanol and DMSO were used as control solutions in line with earlier reports.

Data set [4] relates to HEK 293 (human embryonic kidney cells). Nature of the data set: Cytotoxic activity on non-cancerous cells (MTT assay). Format: cell-based. The settings on record: non-tumor cell line, 72 h incubation, MTT, concentration that causes 50% growth inhibition. The protocol:
(§1) The experiments were performed on four human cell lines, including HCT 116 (colon carcinoma), H 460 (lung carcinoma), MCF-7 (breast carcinoma), and HEK 293 (human embryonic kidney cells), in line with previously published experimental procedures. Briefly, the cells were grown in DMEM medium with the addition of 10% fetal bovine serum (FBS), 2 mM L-glutamine, 100 U/mL penicillin, and 100 µg/mL streptomycin, and cultured as monolayers at 37 °C in a humidified atmosphere with 5% CO2. Cells were seeded at 2 × 10^3 cells/well in a standard 96-well microtiter plates and left to attach for 24 h. The next day, a test compound was added in five serial 10-fold dilutions. The rate of cell growth was evaluated after 72 h of incubation with MTT assays. The obtained results are expressed as IC50 values, calculated from the concentration-response curve using linear regression analysis by fitting the test concentrations that give PG values above and below the reference value (i.e., 50%). Each test was performed in quadruplicate in at least two individual experiments.

Data set [5] concerns H 460 (lung carcinoma). The data set can be described thus: Antiproliferative activity in vitro (MTT assay). Format: cell-based, human. The settings on record: 72 h incubation, concentration that causes 50% growth inhibition. As to the method: as §1
For data set [6], the system named is MCF-7 (breast carcinoma). The data set can be described thus: Antiproliferative activity in vitro (MTT assay). Format: cell-based, human. The note with it: 72 h incubation, concentration that causes 50% growth inhibition. The protocol: as §1
(Formazan colour is commonly taken as a measure of viable cells.)

In data set [7] the test system is HCT 116 (colon carcinoma). The data set can be described thus: Antiproliferative activity in vitro (MTT assay). Type of data set: cell-based, human. The note with it: 72 h incubation, concentration that causes 50% growth inhibition, read-out: IC50 HCT116. As to the method: as §1
Setting [8] is: monocationic, in acetonitrile ref 39.

Take `Oc1cccc(O)c1O` [1,2,3-trihydroxybenzene]: the “calculated BDE lower than that for its 1,3,5-trihydroxy analogue” value in data set [1] (in toluene ref 46) was 15 kcal mol^−1.

With `COc1ccc(N)cc1` [4-OMe-aniline], the “N–H BDE” value in data set [1] was 87.2 kcal/mol.

In data set [2], `Cc1cc(C(C)(C)C)c(O)c(C(C)(C)C)c1` [BHT, butylated hydroxytoluene, reference compound] gave an FRAP of 2089 ± 60 mmolFe^2+/mmolC. Further, the BDE is 76.9 kcal/mol in data set [1] (in benzene ref 45), 79.9 kcal/mol in data set [1] (in heptane ref 44) and 72.4 kcal/mol in data set [1] (in toluene ref 46). This compound registered an IC50 in data set [3] of 25 ± 4 µM.

Take `N#Cc1ccc(N)cc1` [Compound 4-CN-aniline, 4-CN-aniline]: the “N–H BDE” value in data set [1] was 91.8 kcal/mol.

For the compound `COc1ccc(C(=O)Nc2nc3ccc(N)cc3s2)c(OC)c1` [Compound 16, N-(6-aminobenzothiazol-2-yl)-2,4-dimethoxybenzamide], the IC50 in data set [4] (Homo sapiens, HEK293) is 11 ± 8 µM; in data set [5] (Homo sapiens, NCI-H460, 72 h) it was 43 ± 29 µM; in data set [6] (Homo sapiens, MCF7, 72 h) it was 5 ± 0.3 µM; in data set [7] (Homo sapiens, HCT-116, 72 h), 6 ± 1 µM. Moreover, the FRAP in data set [2] was 203.6 ± 5.8 mmolFe^2+/mmolC. The “DPPH IC50” value in data set [3] is on record as “–”.

Take `COc1ccc(C(=O)Nc2nc3ccc(N)cc3s2)c(OC)c1.Cl` [Compound 22, N-(6-aminobenzothiazol-2-yl)-2,4-dimethoxybenzamide hydrochloride]: the IC50 in data set [4] is 11 ± 1 µM; in data set [5], 50 ± 8 µM; in data set [6] it was 3 ± 0.2 µM; in data set [7] it was 8 ± 2 µM; in data set [3], 4 ± 0.04 µM. In addition, in data set [2], the FRAP is 244.2 ± 3.0 mmolFe^2+/mmolC.

Regarding `O=C(Nc1nc2ccc([N+](=O)[O-])cc2s1)c1ccccc1O` [Compound 27, 2-hydroxy-N-(6-nitrobenzothiazol-2-yl)benzamide], the half-inhibitory concentration (IC50) in data set [4] (Homo sapiens, HEK293) worked out at 3 ± 1 µM; in data set [5] (Homo sapiens, NCI-H460, 72 h) it was 3 ± 0.2 µM; in data set [6] (Homo sapiens, MCF7, 72 h) it was 2 ± 0.6 µM; in data set [7] (Homo sapiens, HCT-116, 72 h) it was 6 ± 1 µM. Besides, the FRAP entry in data set [2] is “–”. The “DPPH IC50” value in data set [3] is listed as “–”.

As for `COc1ccc(C(=O)Nc2nc3ccc([N+](=O)[O-])cc3s2)c(O)c1` [Compound 28, 2-hydroxy-4-methoxy-N-(6-nitrobenzothiazol-2-yl)benzamide], the IC50 in data set [4] (Homo sapiens, HEK293) was determined as 4 ± 2 µM; in data set [5] (Homo sapiens, NCI-H460, 72 h) it was 8 ± 1 µM; in data set [6] (Homo sapiens, MCF7, 72 h) it was 10 ± 8 µM; in data set [7] (Homo sapiens, HCT-116, 72 h) it was 7 ± 0.4 µM. Moreover, the FRAP in data set [2] is 39.8 ± 1.6 mmolFe^2+/mmolC. Besides, the “DPPH IC50” value in data set [3] is reported as “–”.

In the case of `CN` [Me–NH3^+], the BDE in data set [1] (setting [8]) is 114.6 kcal/mol.

As to `O=C(Nc1ccccc1)c1ccccc1` [Ph–CO–NH–Ph, reference compound], the BDE in data set [1] (earlier calculations of the authors ref 24) was 85.3 kcal/mol.

On to `Nc1ccccc1` [Ph–NH3^+], for which, in data set [1] (setting [8]), the BDE is 84.9 kcal/mol.

Regarding `Nc1ccccc1` [aniline], in data set [1], the “N–H BDE” value is 89.1 kcal/mol.

Regarding `NC1CCCCC1` [c-C6H11–NH3^+], in data set [1] (setting [8]), the BDE is 113.6 kcal/mol.

Take `O=C(O)c1cc(O)c(O)c(O)c1` [gallic acid]: the “calculated BDE” value in data set [1] is 77.0 kcal/mol.

Take `Oc1ccccc1` [phenol]: the “calculated BDE” value in data set [1] was 82.9 kcal/mol.

The record behind these values is PMC6826492, “Experimental and Computational Study of the Antioxidative Potential of Novel Nitro and Amino Substituted Benzimidazole/Benzothiazole-2-Carboxamides with Antiproliferative Activity” (Antioxidants, 2019).
